Data published in patent US20240082242A1, “COMBINATION THERAPIES” (IMBRIA PHARMACEUTICALS, INC., priority 2021, published 2024).
Blank lines part the entries; values can stand above or below the compound they belong to.

Legend:
[1] = tested on: TAC-induced heart failure in mice; assay: Transverse aortic constriction (TAC) model of heart failure; format: in vivo, mouse; conditions: for left ventricular fractional shortening (FS) at Week 6: CV-8972 10, CV-8814 7.5 mg/kg/day, control 34%±3%; for fibrosis of myocardial tissue after six weeks: Masson's trichome, percentage of fibrotic heart tissue, control 10.7±1; for isovolumic relaxation time (IVRT) at Week 6: control 35±1; for isovolumic relaxation time (IVRT) at the three-week assessment: control 36±1; for left ventricular ejection fraction (EF) throughout the six-week study: minipump
Experimental: Studies were conducted to evaluate and compare the efficacy of the reference compound TMZ with CV-8814 and CV-1018972 on ventricular remodeling, preservation of heart function and prevention of fibrosis in a transverse aortic constriction (TAC) model of heart failure in mice.
FIG. 30 is a schematic of the transverse aortic constriction (TAC) protocol used to test the ability of various compounds to protect the heart against heart failure. The aortic arc was exposed via midline incision in the chest cavity of anesthetized mice. A 27-gauge needle was tied against the transverse aorta and then promptly removed to create a ligature constriction. In vivo cardiac function was assessed by transthoracic echocardiography performed at 24-hour, 3-week, and 6-week time-points after TAC. Ventricular remodeling was determined by evaluation of heart weights (HW) and heart weight to body weight ratios (HW/BW). At study termination, hearts were excised, fixed, sectioned at 6 μm and stained with Masson's trichome. The area of fibrosis in myocardial tissue was measured by computerized planimetry on five random fields per heart. A total of 65 to 75 fields were analyzed per treatment group and differences were analyzed by Student's t-test.
Three separate studies were performed to evaluate the efficacy of single agents and combinations with metabolic enhancers in the TAC model of heart failure. In the first study, mice were treated with either trimetazidine alone or trimetazidine+nicotinamide+succinate. In the second study, mice were treated with CV-8814 alone or trimetazidine+nicotinic acid+succinate. In the third study, mice were treated with […], CV-8814, or CV-8972. Overall, the activities of trimetazidine, CV-8814, and CV-8972 on most study endpoints were in good agreement across the three studies. In the third study, the three compounds were analyzed at equivalent mg/kg/day doses on a formula weight basis: 6 mg/kg/d for trimetazidine, 7.5 mg/kg/day for CV-8814; and 10 mg/kg/day for CV-8972. Therefore, the results from the third study are summarized here.

explanted mouse hearts = assay: Langendorff ischemia-reperfusion protocol; conditions: for infarct size: 20 μM (each) perfusion, triphenyltetrazolium staining, control 68%; for reduction of myocardial infarct size: 20 μM, vs control
Experimental: Studies were conducted to evaluate the effect of CV-8814, a pFOX inhibitor, on protecting heart tissue from ischemia/reperfusion (I/R) injury. Similar studies were performed with trimetazidine (TMZ) as a representative pFOX reference compound. Studies were performed with TMZ alone and TMZ in combination with the metabolic enhancers (e.g., nicotinic acid) for a comparison of single agent and combination agent pharmacologic potencies. FIG. 25 is a schematic of the Langendorff Ischemia-Reperfusion protocol used to test the ability of various compounds to protect the heart from ischemic injury. Test compounds were dissolved at 20 μM in Krebs-Henseleit buffer and perfused through the tissue of mouse hearts at a constant pressure starting at time 0. For each treatment group, 10-18 hearts were tested. A Mikro-tip catheter was inserted into left ventricles to measure cardiac functions, including heart rate, coronary flow, left ventricular systolic and end-diastolic pressure, at the end of the baseline perfusion at 20 minutes. […] At the end of perfusion, hearts were cross-sectioned into five slices, and infarct size was measured by computerized planimetry of triphenyltetrazolium stained heart tissue sections. The concept of combining a pFOX inhibitor with metabolic enhancers (e.g. nicotinamide, nicotinic acid, and succinate) was evaluated in combination Langendorff I/R studies. The combinations included TMZ/nicotinamide/succinate (all at a concentration of 20 μM; coded TNS) and TMZ/nicotinic acid/succinate (all at a concentration of 20 μM; coded TNC).

[2] = tested on: fatty acid beta oxidation; assay: PET imaging of 18F-FTHA uptake after CV-8972 injection; format: in vivo, rat
Text: (§1) The effects of CV-8972, a partial fatty acid oxidation inhibitor, on glucose and fatty acid metabolism were investigated using non-invasive positron emission tomography (PET) imaging. The PET radiotracer ^18F fluorodeoxyglucose (FDG), a radiolabeled glucose analog, was used to evaluate cardiac glucose metabolism, and the PET radiotracer ^18F fluoro-6-thia-heptadecanoic acid (FTHA), a radiolabeled long-chain fatty acid (LCFA) analog, was used to evaluate fatty acid beta oxidation. Both radiotracers are “entrapped” in cells in a way that is proportional to either glucose or fatty acid metabolism. For example, high ^18F-FDG or ^18F-FTHA signal indicates high glucose or fatty acid metabolism, respectively, while, conversely, diminished uptake indicates lower metabolism.
(§2) PET imaging with ^18F-FDG and ^18F-FTHA was performed in healthy rats. PET images were acquired dynamically for 120 minutes after tracer injection to capture dynamic changes in cardiac glucose and fatty acid metabolism. For each tracer, animals were imaged twice, once after injection of vehicle (phosphate buffered saline, PBS) or CV-8972 (80 mg/3 mL/kg), subcutaneously injected to the back of animals 15 min prior to PET imaging.
(§3) FIG. 1 is a schematic of the positron emission tomography (PET) imaging study design used to monitor the uptake of ^18F-fluorodeoxyglucose (^18F-FDG) and ^18F-14(R,S)-(18)F-fluoro-6-thia-heptadecanoic acid (^18F-FTHA) into heart tissue of rats in response to treatment with CV-8972. To monitor uptake of ^18F-FDG, rats were fasted for 16 hours prior to day 1. On day 1, rats were given phosphate-buffered saline (PBS) at time 0, and 15 minutes later ^18F-FDG was administered and traced in vivo by PET for two hours following administration. Rats were again fasted for 16 hours prior to day 3. On day 3, rats were given CV-8972 at time 0, and 15 minutes later ^18F-FDG was administered and traced in vivo by PET for two hours following administration. Immediately following the second PET scan, the animals were sacrificed, and the levels of gamma radioactivity in the blood, heart, and skeletal muscle were measured. To monitor uptake of ^18F-FTHA, rats were allowed to eat prior to day 1. On day 1, rats were given PBS at time 0, and 15 minutes later ^18F-FTHA was administered and traced in vivo by PET for two hours following administration. Rats were allowed to eat prior to day 3. On day 3, rats were given CV-8972 at time 0, and 15 minutes later ^18F-FTHA was administered and traced in vivo by PET for two hours following administration. Immediately following the second PET scan, the animals were sacrificed, and the levels of gamma radioactivity in the blood, heart, and skeletal muscle were measured.
(§4) Dynamic positron emission tomography/computed tomography (PET/CT) imaging was obtained with a Mediso nanoScan 122S PET/CT system. Cardiac glucose and fatty acid metabolisms were visualized by tracking ^18F-FDG (NCM-USA LLC, NY, USA) and ^18F-FTHA (Department of Radiology, New York University School of Medicine, NY, USA), respectively. Before the ^18F-FDG scan, rats were fasted overnight for at least 16 hours to minimize the physiological uptake of the radiotracer to cardiomyocyte. Either vehicle (phosphate buffered saline) or CV-8972 (80 mg/3 mL/kg) was subcutaneously injected to the back of animals 15 min prior to PET imaging. Animals were then placed on the scanner, and high-resolution CT images was obtained. Following, dynamic PET was started at the same time as the injection of ^18F-FDG (37 MBq, 1 mCi/0.5 mL/body) via tail vein and recorded for 120 min. Each animal underwent 2 scan sessions, one after vehicle injection and another after CV-8972 injection, with 2 or more days interval (average 2.9 days, 2-6 days). The order of the 2 imaging sessions was randomized among rats. For ^18F-FTHA (37 MBq, 1 mCi/0.5 mL/body), animals received 2 scan sessions under same conditions as those for ^18F-FDG except for fed condition. […]

[3] = tested on: radioactivity in the heart, skeletal muscle, and blood; assay: Ex vivo quantification of radiotracer uptake by gamma counting; format: in vivo, rat
Experimental: Shortly after the final PET/CT scan, blood was taken from abdominal vein under anesthesia with isoflurane (3-5%), and then animals were euthanized by exsanguination. After thorough perfusion with PBS, the heart and skeletal muscle (right brachium) were harvested. Radioactivity in the heart, muscle, and blood was determined with a Wizard2 2480 automatic gamma counter (Perkin Elmer, Waltham, MA) and % ID/g was calculated for each organ.
The radioactivity in the heart, skeletal muscle, and blood was also determined with a gamma counter shortly after PET/CT imaging for further ex vivo validation.

[4] = mouse, iv, 10 mg/kg
[5] = tested on: cardiac glucose metabolism; assay: PET imaging of 18F-FDG uptake after CV-8972 injection; format: in vivo, rat
Text: as §1, §2, §3, §4

[6] = 20 μM perfusion, initial single agent study
[7] = CV-8972 80 mg/kg s.c. vs PBS, fed rats
[8] = gamma counter shortly after PET/CT, CV-8972 80 mg/kg s.c., mean±SD
[9] = gamma counting, CV-8972 vs control
[10] = static analysis at 30 minutes, CV-8972 vs saline
[11] = two-compartment model, CV-8972 80 mg/kg s.c. vs PBS

Structure (SMILES): COc1ccc(CN2CCN(CCO)CC2)c(OC)c1OC [CV-8814, 2-[4-[(2,3,4-trimethoxyphenyl)methyl]piperazin-1-yl]ethanol]
- left ventricular fractional shortening (FS) at Week 6 [1]: 44%±3%
- fibrosis of myocardial tissue after six weeks [1]: 6.6±0.6%
- isovolumic relaxation time (IVRT) at Week 6 [1]: 28 ± 2 ms
- isovolumic relaxation time (IVRT) at the three-week assessment [1]: 33 ± 1 ms
- left ventricular ejection fraction (EF) throughout the six-week study ([1]; third study): preserved
- infarct size (explanted mouse hearts): 52±4%
- left ventricular developed pressure (LVDP) at 20 min (explanted mouse hearts; [6]): 48±8 mmHg
- left ventricular developed pressure (LVDP) at 170 min (explanted mouse hearts; [6]): 63±5 mm Hg
- coronary flow at the end of the reperfusion period (explanted mouse hearts; 20 μM perfusion, initial single agent study, control 54±6): 90±14 μl/mL
- reduction of myocardial infarct size (explanted mouse hearts): ~16%

Structure (SMILES): O=C(O)c1cccnc1 [Nicotinic acid, nicotinic acid, reference compound]
- fibrosis of myocardial tissue after six weeks [1]: 8.2±1%
- left ventricular ejection fraction (EF) throughout the six-week study ([1]; third study): neither TMZ nor nicotinic acid had a beneficial effect

- conversion of CV-8972 in vivo [4]: rapidly converted to CV-8814
Structure (SMILES): COc1ccc(CN2CCN(CCOC(=O)c3cccnc3)CC2)c(OC)c1OC [CV-8972, 2-[4-[(2,3,4-trimethoxyphenyl)methyl]piperazin-1-yl]ethyl pyridine-3-carboxylate]
- left ventricular fractional shortening (FS) at Week 3 ([1]; CV-8972 10 mg/kg/day, control 37%±3%): 47%±3%
- left ventricular fractional shortening (FS) at Week 6 [1]: 46%±3%
- fibrosis of myocardial tissue after six weeks [1]: 6.6±0.6%
- isovolumic relaxation time (IVRT) at Week 6 [1]: 31 ± 2 ms
- isovolumic relaxation time (IVRT) at the three-week assessment [1]: 32 ± 1 ms
- left ventricular ejection fraction (EF) throughout the six-week study ([1]; third study): preserved
- heart weight to body weight ratio ([1]; third study, CV-8972 10 mg/kg/day, control 9.1±0.5): 7.4 ± 0.3 mg/g
- left ventricular mass ([1]; third study, CV-8972 10 mg/kg/day, control 195±12): 156 ± 10 mg
- heart weight ([1]; third study, subcutaneous osmotic minipump, CV-8972 10 mg/kg/day, control 270±14): 225 ± 11 mg
- 18F-FTHA blood signal, last 30 minutes (90-120 minutes) ([2]; CV-8972 80 mg/kg s.c. vs PBS): unaffected
- 18F-FTHA myocardial signal, last 30 minutes (90-120 minutes) ([2]; CV-8972 80 mg/kg s.c. vs PBS): slightly higher without reaching statistical significance
- 18F-FTHA signal in the blood, single dynamic frames [2, 7]: did not clearly affect
- 18F-FTHA uptake in the heart, single dynamic frames [2, 7]: no statistically significant changes
- 18F-FTHA uptake in the skeletal muscle, single dynamic frames [2, 7]: slightly higher uptake
- 18F-FTHA signal in the skeletal muscle, last 30 minutes (90-120 minutes) ([2]; CV-8972 80 mg/kg s.c. vs PBS, reached statistical significance): slightly higher signal
- initial fold increase of 18F-FTHA PET signal in heart after CV-8972 administration ([2]; from 18F-FTHA circulating in the blood compartment, followed by washout over 120 min): ~2 fold
- 18F-FTHA uptake into the myocardium and skeletal muscle by kinetic modeling ([2]; three-compartment model, CV-8972 80 mg/kg s.c. vs PBS): significantly higher uptake
- mean radioactivity of the heart, 18F-FDG [3, 8]: 4.25±1.03 % ID/g
- mean radioactivity of the heart, 18F-FTHA [3, 8]: 1.98±0.53 % ID/g
- radioactivity of skeletal muscle and blood vs control ([3]; gamma counting, 18F-FDG and 18F-FTHA): did not show clear differences
- fold of heart radioactivity over control, 18F-FDG [3, 9]: 5.6 fold
- fold of heart radioactivity over control, 18F-FTHA [3, 9]: 3.6 fold
- average SUV of 18F-FDG in the heart at 120 min ([5]; CV-8972 80 mg/3 mL/kg s.c. 15 min before PET, fasted healthy rats, mean±SD): 12.56±7.82
- 18F-FDG signal in the blood, single dynamic frames ([5]; CV-8972 80 mg/kg s.c. vs PBS): did not clearly affect
- 18F-FDG signal in the skeletal muscle and blood, last 30 minutes (90-120 minutes) ([5]; CV-8972 80 mg/kg s.c. vs PBS): slightly lower signal
- 18F-FDG uptake in skeletal muscle, single dynamic frames ([5]; CV-8972 80 mg/kg s.c. vs PBS): slightly lower
- 18F-FDG uptake in the myocardium, last 30 minutes of PET acquisition (90-120 minutes) ([5]; CV-8972 80 mg/kg s.c. vs PBS): significantly higher
- fold increase of heart 18F-FDG SUV at 120 min over control group ([5]; CV-8972 80 mg/kg s.c., vs PBS control 0.89±0.62): approximately 14 fold
- change in 18F-FDG SUV in skeletal muscle, static analysis [5, 10]: minimal change
- fold increase in 18F-FDG SUV in rat heart tissue, static analysis [5, 10]: 12 fold
- 18F-FDG myocardial uptake by kinetic modeling [5, 11]: significantly higher myocardial uptake
- 18F-FDG skeletal muscle uptake by kinetic modeling [5, 11]: lower

Structure (SMILES): COc1ccc(CN2CCNCC2)c(OC)c1OC [TMZ, trimetazidine]
- fibrosis of myocardial tissue after six weeks [1]: 7.6±1%
- diastolic function during TAC-induced heart failure ([1]; TMZ 6 mg/kg/d): did not preserve diastolic function
- effect on FS ([1]; TMZ 6 mg/kg/d): did not have a significant effect
- left ventricular ejection fraction (EF) throughout the six-week study ([1]; third study): neither TMZ nor nicotinic acid had a beneficial effect
- infarct size (explanted mouse hearts): 56±3%
- LVDP (explanted mouse hearts; 20 μM TMZ alone, separate study, printed as TMZ vs. control): 49±5 mm Hg
- LVDP at T20 (explanted mouse hearts; 20 μM each, combination study): 56±6 mm Hg
- LVDP at T170 (explanted mouse hearts; 20 μM each, combination study): 49±5 mm Hg
- reduction of myocardial infarct size (explanted mouse hearts): ~9%
